Data reported in the NIST ThermoML archive (doi:10.1021/je200811n).
± gives the expanded uncertainty stated by the source.

Conditions: Hot wire method

F/C=C/C(F)(F)F [trans-1,3,3,3-tetrafluoropropene]
Conditions	thermal conductivity [W/m/K]
241.66 K, 603 kPa, Liquid	0.09528 ± 0.001
241.9 K, 10355 kPa, Liquid	0.09967 ± 0.0011
241.91 K, 15386 kPa, Liquid	0.1016 ± 0.0011
241.91 K, 20710 kPa, Liquid	0.1039 ± 0.0011
241.94 K, 5328 kPa, Liquid	0.0974 ± 0.0011
242 K, 586 kPa, Liquid	0.09528 ± 0.001
242.02 K, 10375 kPa, Liquid	0.09936 ± 0.0011
242.03 K, 15367 kPa, Liquid	0.1014 ± 0.0011
242.03 K, 20714 kPa, Liquid	0.1037 ± 0.0011
242.06 K, 5339 kPa, Liquid	0.097 ± 0.0011
242.11 K, 624 kPa, Liquid	0.09501 ± 0.001
242.35 K, 15378 kPa, Liquid	0.1015 ± 0.0011
242.36 K, 10375 kPa, Liquid	0.09945 ± 0.0011
242.36 K, 20709 kPa, Liquid	0.1035 ± 0.0011
242.41 K, 5308 kPa, Liquid	0.09704 ± 0.0011
242.47 K, 619 kPa, Liquid	0.095 ± 0.001
242.5 K, 10391 kPa, Liquid	0.09913 ± 0.0011
242.5 K, 15372 kPa, Liquid	0.1012 ± 0.0011
242.5 K, 20712 kPa, Liquid	0.1034 ± 0.0011
242.56 K, 5308 kPa, Liquid	0.09697 ± 0.0011
242.62 K, 642 kPa, Liquid	0.09474 ± 0.001
242.85 K, 10385 kPa, Liquid	0.09922 ± 0.0011
242.85 K, 20701 kPa, Liquid	0.1032 ± 0.0011
242.86 K, 15376 kPa, Liquid	0.1011 ± 0.0011
242.92 K, 5304 kPa, Liquid	0.09701 ± 0.0011
243 K, 622 kPa, Liquid	0.09406 ± 0.001
243.02 K, 15383 kPa, Liquid	0.1009 ± 0.0011
243.02 K, 20695 kPa, Liquid	0.1029 ± 0.0011
243.04 K, 10395 kPa, Liquid	0.09886 ± 0.0011
243.1 K, 5316 kPa, Liquid	0.09673 ± 0.0011
243.17 K, 615 kPa, Liquid	0.09437 ± 0.001
243.39 K, 20699 kPa, Liquid	0.1032 ± 0.0011
243.4 K, 15385 kPa, Liquid	0.1011 ± 0.0011
243.42 K, 10393 kPa, Liquid	0.09892 ± 0.0011
243.49 K, 5327 kPa, Liquid	0.09667 ± 0.0011
243.57 K, 643 kPa, Liquid	0.09442 ± 0.001
243.59 K, 20693 kPa, Liquid	0.1027 ± 0.0011
243.6 K, 15397 kPa, Liquid	0.1006 ± 0.0011
243.63 K, 10402 kPa, Liquid	0.09852 ± 0.0011
243.71 K, 5317 kPa, Liquid	0.09606 ± 0.001
243.79 K, 649 kPa, Liquid	0.09402 ± 0.001
251.51 K, 42 kPa, Gas	0.01026 ± 0.00036
251.52 K, 63 kPa, Gas	0.01037 ± 0.00036
251.54 K, 86 kPa, Gas	0.01039 ± 0.00036
251.74 K, 41 kPa, Gas	0.01015 ± 0.00035
251.76 K, 63 kPa, Gas	0.01019 ± 0.00035
251.77 K, 86 kPa, Gas	0.01024 ± 0.00036
251.78 K, 87 kPa, Gas	0.01029 ± 0.00036
251.97 K, 87 kPa, Gas	0.01006 ± 0.00035
252 K, 41 kPa, Gas	0.01005 ± 0.00035
252 K, 62 kPa, Gas	0.01009 ± 0.00035
252 K, 88 kPa, Gas	0.01003 ± 0.00035
252.01 K, 86 kPa, Gas	0.01018 ± 0.00035
252.02 K, 63 kPa, Gas	0.01 ± 0.00035
252.03 K, 87 kPa, Gas	0.01018 ± 0.00035
252.31 K, 87 kPa, Gas	0.01004 ± 0.00035
252.33 K, 88 kPa, Gas	0.01011 ± 0.00035
252.36 K, 63 kPa, Gas	0.01014 ± 0.00035
252.65 K, 86 kPa, Gas	0.01016 ± 0.00035
252.67 K, 87 kPa, Gas	0.01008 ± 0.00035
252.73 K, 63 kPa, Gas	0.01019 ± 0.00035
253.03 K, 86 kPa, Gas	0.01015 ± 0.00035
253.07 K, 87 kPa, Gas	0.01011 ± 0.00035
253.13 K, 63 kPa, Gas	0.01017 ± 0.00035
253.46 K, 86 kPa, Gas	0.01017 ± 0.00035
253.48 K, 87 kPa, Gas	0.01016 ± 0.00035
253.56 K, 62 kPa, Gas	0.01022 ± 0.00036
261.25 K, 97 kPa, Gas	0.0104 ± 0.0004
261.43 K, 21238 kPa, Liquid	0.09804 ± 0.0011
261.44 K, 15456 kPa, Liquid	0.09523 ± 0.001
261.45 K, 97 kPa, Gas	0.01036 ± 0.00036
261.47 K, 10413 kPa, Liquid	0.09305 ± 0.001
261.48 K, 489 kPa, Liquid	0.08806 ± 0.00097
261.5 K, 80 kPa, Gas	0.01109 ± 0.00038
261.5 K, 5306 kPa, Liquid	0.09055 ± 0.00099
261.51 K, 21243 kPa, Liquid	0.09768 ± 0.0011
261.52 K, 15449 kPa, Liquid	0.09503 ± 0.001
261.55 K, 97 kPa, Gas	0.01112 ± 0.00038
261.55 K, 10410 kPa, Liquid	0.09274 ± 0.001
261.56 K, 107 kPa, Gas	0.0112 ± 0.0004
261.56 K, 489 kPa, Liquid	0.0878 ± 0.00096
261.57 K, 122 kPa, Gas	0.01124 ± 0.00039
261.58 K, 5302 kPa, Liquid	0.09026 ± 0.00099
261.64 K, 98 kPa, Gas	0.01034 ± 0.00036
261.73 K, 80 kPa, Gas	0.01096 ± 0.00038
261.77 K, 97 kPa, Gas	0.01098 ± 0.00038
261.78 K, 105 kPa, Gas	0.01104 ± 0.00038
261.79 K, 120 kPa, Gas	0.01105 ± 0.00038
261.83 K, 21233 kPa, Liquid	0.09783 ± 0.0011
261.85 K, 15453 kPa, Liquid	0.09507 ± 0.001
261.86 K, 98 kPa, Gas	0.01037 ± 0.00036
261.88 K, 10404 kPa, Liquid	0.09272 ± 0.001
261.91 K, 489 kPa, Liquid	0.08776 ± 0.00096
261.93 K, 5298 kPa, Liquid	0.09023 ± 0.00099
261.93 K, 21227 kPa, Liquid	0.09748 ± 0.0011
261.96 K, 80 kPa, Gas	0.01086 ± 0.00038
261.96 K, 128 kPa, Gas	0.01078 ± 0.00037
261.96 K, 15453 kPa, Liquid	0.09468 ± 0.001
261.97 K, 82 kPa, Gas	0.01083 ± 0.00037
261.97 K, 112 kPa, Gas	0.01074 ± 0.00037
261.98 K, 99 kPa, Gas	0.01077 ± 0.00037
262 K, 98 kPa, Gas	0.01084 ± 0.00037
262 K, 10412 kPa, Liquid	0.0925 ± 0.001
262.01 K, 97 kPa, Gas	0.0109 ± 0.0004
262.02 K, 103 kPa, Gas	0.01092 ± 0.00038
262.03 K, 118 kPa, Gas	0.01094 ± 0.00038
262.03 K, 488 kPa, Liquid	0.08756 ± 0.00096
262.04 K, 5301 kPa, Liquid	0.08998 ± 0.00098
262.09 K, 98 kPa, Gas	0.01037 ± 0.00036
262.29 K, 109 kPa, Gas	0.01076 ± 0.00037
262.29 K, 21229 kPa, Liquid	0.09748 ± 0.0011
262.3 K, 81 kPa, Gas	0.01082 ± 0.00037
262.3 K, 98 kPa, Gas	0.01082 ± 0.00037

Liquid
Conditions	thermal conductivity [W/m/K]
243.15 K	0.09448 ± 0.00058
253.15 K	0.09063 ± 0.00056
